Columns and labels:
[1] = test system: carrageenin-induced edema in the rat paw; test: Carrageenin-induced edema of the rat paw (Winter et al.); assay type: in vivo; conditions: po, read-out: Percent inhibition of the carrageenin-induced edema; for inhibition in vivo at 50 mg/kg: 50 mg/kg os; for inhibition in vivo at 100 mg/kg: 100 mg/kg os; for inhibition in vivo at 200 mg/kg: 200 mg/kg os; for inhibition in vivo at 20 mg/kg: 20 mg/kg os
[2] = test system: granuloma formed on a cotton pellet implanted subcutaneously in rats; test: Cotton pellet granuloma test in rats (Meier et al.); conditions: Rattus norvegicus, po, read-out: Percent inhibition of the granuloma pellet
in vivo = conditions: mouse, po
Method: The toxicities were determined according to Lichtfield and Wilcoxon, Journ. Pharm.

[3] = test system: adjuvant induced arthritis in rats; test: Adjuvant induced arthritis test in rats (Newbold); assay type: in vivo, rat; conditions: rats p.o.
Method: In still another some of the compounds were tested in the adjuvant induced arthritis test in rats.
This test which was performed as described by B. B. Newbold in Bri. Journ. Pharmacol., 21, 127, (1963), is absolutely meaningful, because adjuvant arthritis is one of the best pharmacological tool with which a pharmacologist can investigate compounds as to their possible antiinflammatory activity, owing to the fact that this experimental model of chronic inflammation looks closer like to the conditions of rheumatoid arthritis of the human pathology (see Pearson, C. M., Arthritis and allied conditions, page 119, Lea and Febiger Publ. 1967 and Pearson C. M., J. Chronic Diseases, 16, 863 (1963).
. The measure of effectiveness of the compounds in this test is given by their ability in reducing the volume of the hind paws of the rats.

Row | Compound | inhibition in vivo at 50 mg/kg [1] [%] | inhibition in vivo at 100 mg/kg [1] [%] | inhibition in vivo at 200 mg/kg [1] [%] | inhibition in vivo at 200 mg/kg [2] [%] | LD50 (in vivo) [mg/kg] | inhibition in vivo at 100 mg/kg [2] [%] | % Reduction of the volume of the hind paws over the control ([3]; 200 mg/kg) [%] | inhibition in vivo at 20 mg/kg [1] [%] | % Reduction of the volume of the hind paws over the control ([3]; 100 mg/kg) [%]
1 | Cn1c(-c2ccccc2)nc2c3ccccc3ccc21 [Example 1, 3-methyl-2-phenyl-3H-naphtho[1,2-d]imidazole] | 24 | 37 | 42 | 24 | 1000 | – | – | – | –
2 | COc1ccc(-c2nc3c4ccccc4ccc3n2C)cc1 [Example 3, 2-(4-methoxyphenyl)-3-methyl-3H-naphtho[1,2-d]imidazole] | 34 | 41 | – | – | ~1000 | 40 | 33 | – | –
3 | CCn1c(-c2ccc(OC)cc2)nc2c3ccccc3ccc21 [Example 15, 3-ethyl-2-(4-methoxyphenyl)-3H-naphtho[1,2-d]imidazole] | 45 | 49 | 52 | 31 | > 1000 | – | – | 31 | –
4 | CCOc1ccc(-c2nc3c4ccccc4ccc3n2C)cc1 [Example 2, 3-methyl-2-(4-ethoxyphenyl)-3H-naphtho[1,2-d]imidazole] | 21 | 37 | 45 | 40 | > 1000 | – | – | – | –
5 | COc1ccc(-c2nc3c4ccccc4ccc3n2C(C)C)cc1 [Example 9, 3-(1-methylethyl)-2-(4-methoxyphenyl)-3H-naphth[1,2-d]imidazole] | 32 | 45 | 48 | 45 | – | – | 53 | – | –
6 | Cc1cc(-c2nc3c4ccccc4ccc3n2C)ccc1N(C)C [Example 5, 4-(3-methyl-3H-naphtho[1,2-d]imidazol-2-yl)-2,N,N-trimethylbenzenamine] | 50 | 64 | – | – | 500 | 38 | – | 35 | 42
7 | CNc1ccc(-c2nc3c4ccccc4ccc3n2C)cc1 [Example 7, N-methyl-4-(3-methyl-3H-naphtho[1,2-d]imidazol-2-yl)benzenamine] | 37 | 47 | – | – | 500 | 33 | – | 29 | –
8 | CN(C)c1ccc(-c2nc3c4ccccc4ccc3n2C)cc1 [Example 4, N,N-dimethyl-4-(3-methyl-3H-naphtho[1,2-d]imidazol-2-yl) benzenamine] | 46 | 54 | – | – | 500 | 24 | – | 32 | –
